Data set [1] deals with THP-1. Kind of data set: Cytotoxicity against human THP1 cells using propidium iodide and SYBR-14 staining after 72 hrs by flow cytometry. The format is cell-based. As to conditions: THP-1, 72 h. A general note: In flow cytometry, cells or beads pass a laser one at a time.
Data set [2] has as its system Leishmania infantum. Kind of data set: Antileishmanial activity against intracellular amastigote form of Leishmania infantum MK-1 infected in human THP1 cells after 48 hrs using giemsa staining. Type of data set: functional, organism-based. Conditions: MK-1, THP-1, 48 h.
Data set [3] deals with Leishmania infantum. Kind of data set: Antileishmanial activity against intracellular amastigote form of Leishmania infantum MON 235 infected in human THP1 cells after 48 hrs using giemsa staining. Type of data set: functional, organism-based. Conditions: MON 235, THP-1, 48 h.
Data set [4] in a line: Selectivity index, ratio of IC50 for human THP1 cells to IC50 for intracellular amastigote form of Leishmania infantum MON 235. Type of data set: toxicity, cell-based, THP-1. As to conditions: read-out: Ratio IC50.
The species named for data set [5] is Homo sapiens. In words: Half life in human. The format is ADME, organism-based. Conditions: in vivo.
Data set [6] in a line: Selectivity index, ratio of IC50 for human THP1 cells to IC50 for intracellular amastigote form of Leishmania infantum MK-1. Type of data set: toxicity, cell-based, THP-1. Conditions: read-out: Ratio IC50.

pIC50: −log10 of the molar value.

By pIC50 is commonly meant the negative decadic logarithm of the IC50, by convention in mol/L.

With `C[N+](C)(C)CCOP(=O)([O-])OCCC12CC3CC(CC(CCOCc4ccccc4)(C3)C1)C2`, the results for the negative logarithm of the IC50 (pIC50) in data set [1] and in data set [2] were below 4.30 and 4.38, respectively.

On to `C[N+](C)(C)[C@H]1CCCC[C@@H]1OP(=O)([O-])OCCCCCCCCCCC=C1C2CC3CC(C2)CC1C3`, for which the pIC50 was 6.10 in data set [3] and 4.40 in data set [1]. Also, the selectivity ratio in data set [4] came to 49.6.

In the case of `C[N+](C)(C)CC#CCOP(=O)([O-])OCCCCCCCCCCC=C1C2CC3CC(C2)CC1C3`, in data set [3], the pIC50 is 5.28. Further, in data set [4], the selectivity ratio worked out at 14.5.

As to `CCCCCCOCCC12CC3CC(C1)CC(CCOP(=O)([O-])OCC[N+](C)(C)C)(C3)C2`, the values for the pIC50 in data set [1] and in data set [2] were below 4.30 and 4.77, respectively.

`C[N+]1(CCOP(=O)([O-])OCCCCCCCCCCC=C2C3CC4CC(C3)CC2C4)CCOCC1` showed a pIC50 in data set [3] of 5.87. For the same compound, the selectivity ratio in data set [4] is 27.9.

As to `CCCCCCCCCCOCCC12CC3CC(C1)CC(CCOP(=O)([O-])OCC[N+](C)(C)C)(C3)C2`, the negative logarithm of the IC50 (pIC50) in data set [1] was 4.74; in data set [2], below 4.74.

Regarding `CCCCCCCCOCCC12CC3CC(C1)CC(CCOP(=O)([O-])OCC[N+](C)(C)C)(C3)C2`, the pIC50 in data set [1] was below 4.30; in data set [2], 4.79.

For `CCCCCCCCCCCCOCCC12CC3CC(C1)CC(CCOP(=O)([O-])OCC[N+](C)(C)C)(C3)C2`, the pIC50 in data set [1] was 4.67; in data set [2] it was below 4.67.

For `CCCCOCCC12CC3CC(C1)CC(CCOP(=O)([O-])OCC[N+](C)(C)C)(C3)C2`, the pIC50 in data set [1] and in data set [2] was below 4.30 each time.

Turning to `C[N+](C)(C)[C@H]1CCC[C@@H]1OP(=O)([O-])OCCCCCCCCCCC=C1C2CC3CC(C2)CC1C3`, the pIC50 in data set [3] was 6.52; in data set [1], 4.13. In addition, the selectivity ratio in data set [4] stood at 250.

With `C[N+]1(CCOP(=O)([O-])OCCCCCCCCCCC=C2C3CC4CC(C3)CC2C4)CCCCC1`, the pIC50 in data set [3] is 5.24. The selectivity ratio in data set [4] was 29.6.

With `C[N+]1(C)C2CCC1CC(=CCOP(=O)([O-])OCCCCCCCCCCC=C1C3CC4CC(C3)CC1C4)C2`, in data set [3], the pIC50 was 5.04. The selectivity ratio in data set [4] was 16.2.

`CCCCCCCCCCCCCCCCOP(=O)([O-])OCC[N+](C)(C)C` [MILTEFOSINE]: in data set [5], the t1/2 came out at 1.67 h. Further, the pIC50 in data set [3] was 5.17; in data set [2], 5.59. Besides, the results for the selectivity ratio in data set [4] and in data set [6] were 8.7 and 11.2, respectively.

`C[N+](C)(C)CCOP(=O)([O-])OCCCCCCCCCCC=C1C2CC3CC(C2)CC1C3`: the pIC50 in data set [3] is 7.51. For the same compound, in data set [4], the selectivity ratio turned out to be 1920.
